Source: PubChem BioAssay AID1918952 (Molecular Pharmacology Branch, DTP, NCI, 2023)

Tested on: LG0703-F948-PDC complex spheroid viability
Assay: Anticancer human tumor LG0703-F948-PDC patient-derived lung adenocarcinoma cell line growth inhibition
Conditions: for IC50: curve of first compound; for viability, T/C: stronger effect = lower value
Outline: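 Complex spheroids of tumor cells with HUVEC and human MSCs, exposed to iadademstat combined with other agents. Each agent tested in half-log steps from near clinical Cmax (else 10 microM top), DMSO ≤0.25%.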

[1] = second compound 0.1 µM, first compound 0.0316 µM
[2] = second compound 0.1 µM, first compound 0.1 µM
[3] = second compound 0.1 µM, first compound 0.316 µM
[4] = second compound 0.1 µM, first compound 1 µM
[5] = second compound 0.1 µM, first compound 3.16 µM
[6] = second compound 0.1 µM, first compound 10 µM
[7] = second compound 0.316 µM, first compound 0.0316 µM
[8] = second compound 0.316 µM, first compound 0.1 µM
[9] = second compound 0.316 µM, first compound 0.316 µM
[10] = second compound 0.316 µM, first compound 1 µM
[11] = second compound 0.316 µM, first compound 3.16 µM
[12] = second compound 0.316 µM, first compound 10 µM
[13] = second compound 1 µM, first compound 0.0316 µM
[14] = second compound 1 µM, first compound 0.1 µM
[15] = second compound 1 µM, first compound 0.316 µM
[16] = second compound 1 µM, first compound 1 µM
[17] = second compound 1 µM, first compound 3.16 µM
[18] = second compound 1 µM, first compound 10 µM
[19] = second compound 3.16 µM, first compound 0.0316 µM
[20] = second compound 3.16 µM, first compound 0.1 µM
[21] = second compound 3.16 µM, first compound 0.316 µM
[22] = second compound 3.16 µM, first compound 1 µM
[23] = second compound 3.16 µM, first compound 3.16 µM
[24] = second compound 3.16 µM, first compound 10 µM
[25] = second compound 10 µM, first compound 0.0316 µM
[26] = second compound 10 µM, first compound 0.1 µM
[27] = second compound 10 µM, first compound 0.316 µM
[28] = second compound 10 µM, first compound 1 µM
[29] = second compound 10 µM, first compound 3.16 µM
[30] = second compound 10 µM, first compound 10 µM
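Further: spheroids exposed to agents for seven days before readout.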
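Wherever viability, T/C is given: 100% = DMSO vehicle control wells as normalization base.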

SMILES | IC50 (second compound 0.1 µM) [nM] | IC50 (second compound 0.316 µM) [nM] | IC50 (second compound 1 µM) [nM] | IC50 (second compound 3.16 µM) [nM] | IC50 (second compound 10 µM) [nM] | viability, T/C [1] [%] | viability, T/C [2] [%] | viability, T/C [3] [%] | viability, T/C [4] [%] | viability, T/C [7] [%] | viability, T/C [8] [%] | viability, T/C [9] [%] | viability, T/C [10] [%] | viability, T/C [13] [%] | viability, T/C [14] [%] | viability, T/C [15] [%] | viability, T/C [16] [%] | viability, T/C [19] [%] | viability, T/C [20] [%] | viability, T/C [21] [%] | further results
CC(C)c1c(-c2ccccc2)nc2c(C#N)c[nH]n2c1=O + NC1CCC(NC2CC2c2ccccc2)CC1 | > 10000 | > 10000 | > 10000 | > 10000 | > 10000 | 101 | 95.8 | 85.5 | 90.1 | 98.1 | 104 | 97.4 | 95 | 110 | 102 | 106 | 83 | 106 | 108 | 108 | viability, T/C [5]: 102%; viability, T/C [6]: 78.3%; viability, T/C [11]: 101%; viability, T/C [12]: 85.9%; viability, T/C [17]: 98.4%; viability, T/C [18]: 89.1%; viability, T/C [22]: 105%; viability, T/C [23]: 107%; viability, T/C [24]: 94.1%; viability, T/C [25]: 110%; viability, T/C [26]: 119%; viability, T/C [27]: 113%; viability, T/C [28]: 105%; viability, T/C [29]: 100%; viability, T/C [30]: 85.8%
CC1COCCN1c1cc(-c2ccnn2C)c2ccnc(-c3ccn[nH]3)c2n1 (stereo not given) + NC1CCC(NC2CC2c2ccccc2)CC1 | 43.8 | 48.5 | 42.6 | 71.1 | 42.5 | 52.8 | 37.5 | 25.5 | 13.5 | 54.6 | 36.2 | 26.2 | 16 | 60.2 | 34.7 | 21.6 | 17.6 | 77 | 38.1 | 24.2 | viability, T/C (second compound 0.1 µM, first compound 0.00316 µM): 76.3%; viability, T/C (second compound 0.1 µM, first compound 0.01 µM): 71.6%; viability, T/C (second compound 0.316 µM, first compound 0.00316 µM): 69.9%; viability, T/C (second compound 0.316 µM, first compound 0.01 µM): 79.5%; viability, T/C (second compound 1 µM, first compound 0.00316 µM): 99.8%; viability, T/C (second compound 1 µM, first compound 0.01 µM): 72.4%; viability, T/C (second compound 3.16 µM, first compound 0.00316 µM): 78.8%; viability, T/C (second compound 3.16 µM, first compound 0.01 µM): 85.8%; viability, T/C [22]: 13.9%; viability, T/C (second compound 10 µM, first compound 0.00316 µM): 82.3%; viability, T/C (second compound 10 µM, first compound 0.01 µM): 78.9%; viability, T/C [25]: 55.6%; viability, T/C [26]: 30.1%; viability, T/C [27]: 21.1%; viability, T/C [28]: 11.5%
COc1ccc([C@@H](O)c2cc(-c3ncnc4cc(N5CCOCC5)ccc34)c(F)cc2Cl)nn1 + NC1CCC(NC2CC2c2ccccc2)CC1 | 1160 | 1170 | 1230 | 1170 | 1030 | 100 | 97.4 | 88.4 | 54.5 | 92.3 | 110 | 87.3 | 54.8 | 110 | 97.4 | 84 | 61.8 | 112 | 95.3 | 89.6 | viability, T/C [5]: 17.4%; viability, T/C [6]: 3.58%; viability, T/C [11]: 18.7%; viability, T/C [12]: 4.54%; viability, T/C [17]: 16.1%; viability, T/C [18]: 3.83%; viability, T/C [22]: 56.5%; viability, T/C [23]: 16.7%; viability, T/C [24]: 3.27%; viability, T/C [25]: 118%; viability, T/C [26]: 107%; viability, T/C [27]: 92.4%; viability, T/C [28]: 52.2%; viability, T/C [29]: 12.4%; viability, T/C [30]: 3.19%
